This note sets out measurements from patent US10323028B2, “1,3,4-thiadiazole compounds and their use in treating cancer” (AstraZeneca AB, priority 2015, dated 2019).

The structures appear in SMILES notation. Where two headings read alike, the source gives them in different places.

Experiment [1] deals with NCI-H1703 cells. Description: GLS Cell Proliferation Assay (NCI-H1703 cell proliferation). Type of experiment: cell-based. An excerpt:
(§1) The following assays were used to measure the effects of the compounds described herein: a) GLS Enzyme Potency Assay; b) GLS Cell Potency Assay; c) GLS Cell Proliferation Assay. During the description of the assays, generally: • i. The following abbreviations have been used: CO2=Carbon dioxide; DMEM=Dulbecco's Modified Eagle Medium; DMSO=Dimethyl sulphoxide; EDTA=Ethylenediaminetetraacetic acid; EGTA=Ethylene glycol tetraacetic acid; FCS=Foetal calf serum; h=Hour(s); NBS=Non-binding surface; SDS=Sodium dodecyl sulphate; TRIS=Tris(Hydroxymethyl)aminomethane. • ii. IC50 values were calculated using a smart fitting model in Genedata.
Assay c): GLS Cell Proliferation Assay
The ability of compounds to inhibit cell growth was measured using a 384 well plate NCI-H1703 cell proliferation assay. NCI-H1703 cells were grown in phenol red free RPMI1640, 10% FCS and 2 mM glutamine and seeded at a density of 750 cells per well in 40 μl of growth medium into clear-bottom 384 well assay plates (Corning product code 3712) and incubated for 24 h at 37° C., 5% CO2. […] DMSO concentration was maintained at 0.3% by back filling with DMSO solution. Plates were incubated for 5 days at 37° C., 5% CO2, Sytox Green and Saponin added to final concentration of 2 μM and 0.25% respectively and incubated for 6 h prior to analysis. […] IC50 values were calculated by curve fitting to max inhibition of day zero growth using GeneData software analysis.

For experiment [2], the target named is GLS1 (Homo sapiens (Human), UniProt O94925). Description: GLS Enzyme Potency Assay (Glutamate Oxidase/AmplexRed coupled assay). Type of experiment: biochemical. The settings on record: 6His tagged GLS protein (amino acids 63-669), recombinant; read-out: Assay a) enz IC50.
From the text: as §1
Assay a): GLS Enzyme Potency Assay
A Glutamate Oxidase/AmplexRed coupled assay was used to measure the ability of compounds to bind to and inhibit the activity of GLS1 in vitro. […] GLS1 was diluted to 2× working concentration and incubated at room temperature to allow the tetrameric/dimeric forms to reach steady state. Assay measurements were performed in buffer comprising 50 mM TRIS pH 7.8, 100 mM NaPO4, pH 7.8, 0.001% v/v Tween20. Purified recombinant GLS1 protein was diluted in assay buffer to 12 nM and pre-incubated at room temperature for 30 minutes. […] DMSO concentration was maintained at 2% by back filling with DMSO solution. 3 μL of diluted GLS1 protein (12 nM) was then dispensed into each well using a BioRaptr automated dispenser (Beckman-Coulter) and incubated for 15 minutes at room temperature. 3 μL of 100 mM glutamine diluted in assay buffer was then added and the reaction incubated at room temperature for 60 minutes. […] An artefact version of the assay where the 6His tagged GLS protein and glutamine were replaced with assay buffer was also used to rule out non specific effects on the assay components.

The mark [3] stands for this setting: NCI-H1703 cells, 5 days; read-out: Assay c) Prolif Mean IC50.
Where [4] appears, read: Homo sapiens, NCI-H1703, 120 h, NCI-H1703 cells, 5 days; read-out: Assay c) Prolif Mean IC50.

Chain of GLS1 (O94925 63-669): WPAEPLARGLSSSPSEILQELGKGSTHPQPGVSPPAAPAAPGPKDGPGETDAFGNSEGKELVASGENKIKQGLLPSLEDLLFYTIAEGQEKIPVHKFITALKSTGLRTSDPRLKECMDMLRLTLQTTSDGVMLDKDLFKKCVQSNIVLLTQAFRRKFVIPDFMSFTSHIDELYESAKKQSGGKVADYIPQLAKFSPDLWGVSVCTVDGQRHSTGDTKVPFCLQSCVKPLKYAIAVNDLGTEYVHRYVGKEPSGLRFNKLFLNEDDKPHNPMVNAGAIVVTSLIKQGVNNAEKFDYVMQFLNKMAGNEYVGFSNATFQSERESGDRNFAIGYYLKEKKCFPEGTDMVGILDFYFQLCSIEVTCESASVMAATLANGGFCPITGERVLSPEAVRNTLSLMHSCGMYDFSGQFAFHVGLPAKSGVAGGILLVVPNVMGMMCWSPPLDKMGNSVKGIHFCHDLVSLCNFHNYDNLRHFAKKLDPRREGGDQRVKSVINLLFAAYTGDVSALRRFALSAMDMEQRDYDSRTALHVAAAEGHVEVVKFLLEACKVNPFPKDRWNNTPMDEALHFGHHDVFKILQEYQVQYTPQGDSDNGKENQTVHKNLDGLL

What is called IC50 is the concentration that inhibits the measured activity by half. `CO[C@H](C(=O)Nc1nnc(N[C@@H]2CCN(c3cccnn3)C2)s1)c1cccc(N2CC(F)(F)C2)c1` (single isomer, unassigned) [2(b)]: the IC50 in experiment [1] (setting [3]) was 28.6 nM.
Regarding `COC[C@H](C(=O)Nc1nnc(N[C@@H]2CCN(c3cccnn3)C2)s1)c1cccc(OC)c1` (single isomer, unassigned) [5(b)], the IC50 in experiment [1] (setting [3]) was found to be 120 nM.
On to `COC1CN(c2cccc([C@H](OC)C(=O)Nc3nnc(N[C@@H]4CCN(c5ccc(F)nn5)C4)s3)c2)C1` (single isomer, unassigned) [9(b)], for which, in experiment [1] (setting [3]), the IC50 came out at 122 nM.
As to `COc1cc([C@H](OC)C(=O)Nc2nnc(N[C@@H]3CCN(c4cccnn4)C3)s2)cc(N2CC(F)C2)c1` (single isomer, unassigned) [10(b)], in experiment [1] (setting [4]), the half-inhibitory concentration (IC50) stood at 43.4 nM.
On to `COc1cc(OC(F)(F)F)cc([C@H](OC)C(=O)Nc2nnc(N[C@@H]3CCN(c4cccnn4)C3)s2)c1` (single isomer, unassigned) [11(b)], for which, in experiment [1] (setting [3]), the IC50 was 1.04 nM.
Turning to `COC1CN(c2cccc([C@H](OC)C(=O)Nc3nnc(N[C@@H]4CCN(c5ccc(C)nn5)C4)s3)c2)C1` (single isomer, unassigned) [12(b)], the IC50 in experiment [1] (setting [3]) was 524 nM.
As to `COC1CN(c2cccc([C@H](OC)C(=O)Nc3nnc(N[C@@H]4CCN(c5nccnn5)C4)s3)c2)C1` (single isomer, unassigned) [13(b)], the 50% inhibitory concentration (IC50) in experiment [1] (setting [3]) was found to be 497 nM.
Turning to `CO[C@H](C(=O)Nc1nnc(N[C@@H]2CCN(c3nccnn3)C2)s1)c1cccc(N2CC(F)(F)C2)c1` (single isomer, unassigned) [14(b)], the values for the IC50 in experiment [1] (setting [3]) and in experiment [2] were 156 nM and 660 nM, respectively.
Turning to `CO[C@H](C(=O)Nc1nnc(N[C@@H]2CCN(c3nccnn3)C2)s1)c1cccc(N2CC(F)C2)c1` (single isomer, unassigned) [15(b)], the figures for the IC50 in experiment [1] (setting [3]) and in experiment [2] were 376 nM and 1310 nM, respectively.
In the case of `COc1cc(OC)cc([C@H](OC)C(=O)Nc2nnc(N[C@@H]3CCN(c4nccnn4)C3)s2)c1` (single isomer, unassigned) [16(b)], the concentration for half-maximal inhibition (IC50) in experiment [2] was 689 nM.
For the compound `CCO[C@H](C(=O)Nc1nnc(N[C@@H]2CCN(c3cccnn3)C2)s1)c1cccc(OC(F)F)c1` (single isomer, unassigned) [17(b)], the IC50 in experiment [1] (setting [3]) was 34.9 nM.
On the same count and under the same terms, in the case of `CCO[C@H](C(=O)Nc1nnc(N[C@@H]2CCN(c3cccnn3)C2)s1)c1cccc(OC(F)(F)F)c1` (single isomer, unassigned) [19(b)] it was 7.59 nM.
For the compound `CO[C@H](C(=O)Nc1nnc(N[C@@H]2CCN(c3cccnn3)C2)s1)c1ccc(F)c(OC(F)(F)F)c1` (single isomer, unassigned) [20(b)], the IC50 in experiment [1] (setting [3]) was found to be 2.65 nM.
Still for that read-out and setting: the same measure for `CO[C@H](C(=O)Nc1nnc(N[C@@H]2CCN(c3cccnn3)C2)s1)c1cccc(N2CC(F)(F)C2)c1` (single isomer, unassigned) [Example 2(a)]: 2.5 nM.
Still for that read-out and setting: in the case of `COC[C@H](C(=O)Nc1nnc(N[C@@H]2CCN(c3cccnn3)C2)s1)c1cccc(OC)c1` (single isomer, unassigned) [Example 5(a)] it was 11.7 nM.
Consider `CCO[C@H](C(=O)Nc1nnc(N[C@@H]2CCN(c3cccnn3)C2)s1)c1cc(OC)cc(OC)c1` (single isomer, unassigned) [Example 6(a)], for which the IC50 in experiment [1] (setting [3]) was 2.2 nM.
With `CO[C@H](C(=O)Nc1nnc(N[C@@H]2CCN(c3cccnn3)C2)s1)c1ccc(F)c(N2CC(F)C2)c1` (single isomer, unassigned) [Example 8(a)], the IC50 in experiment [1] (setting [4]) is 57.6 nM.
Turning to `COC1CN(c2cccc([C@H](OC)C(=O)Nc3nnc(N[C@@H]4CCN(c5ccc(F)nn5)C4)s3)c2)C1` (single isomer, unassigned) [Example 9(a)], the half-inhibitory concentration (IC50) in experiment [1] (setting [3]) was found to be 4.9 nM.
Regarding `COc1cc(OC(F)(F)F)cc([C@H](OC)C(=O)Nc2nnc(N[C@@H]3CCN(c4cccnn4)C3)s2)c1` (single isomer, unassigned) [Example 11(a)], the IC50 in experiment [1] (setting [4]) amounted to 1.7 nM.
Consider `COC1CN(c2cccc([C@H](OC)C(=O)Nc3nnc(N[C@@H]4CCN(c5ccc(C)nn5)C4)s3)c2)C1` (single isomer, unassigned) [Example 12(a)], for which the IC50 in experiment [1] (setting [3]) was 32.9 nM.
On to `COC1CN(c2cccc([C@H](OC)C(=O)Nc3nnc(N[C@@H]4CCN(c5nccnn5)C4)s3)c2)C1` (single isomer, unassigned) [Example 13(a)], for which the half-maximal inhibitory concentration (IC50) in experiment [2] amounted to 75.1 nM.
`CO[C@H](C(=O)Nc1nnc(N[C@@H]2CCN(c3nccnn3)C2)s1)c1cccc(N2CC(F)(F)C2)c1` (single isomer, unassigned) [Example 14(a)]: the IC50 turned out to be 5.89 nM in experiment [1] (setting [3]) and 91.5 nM in experiment [2].
Consider `CO[C@H](C(=O)Nc1nnc(N[C@@H]2CCN(c3nccnn3)C2)s1)c1cccc(N2CC(F)C2)c1` (single isomer, unassigned) [Example 15(a)], for which the IC50 in experiment [1] (setting [3]) was determined as 11.6 nM; in experiment [2], 77.6 nM.
Turning to `COc1cc(OC)cc([C@H](OC)C(=O)Nc2nnc(N[C@@H]3CCN(c4nccnn4)C3)s2)c1` (single isomer, unassigned) [Example 16(a)], the IC50 in experiment [1] (setting [4]) came to 3.49 nM; in experiment [2], 25.2 nM.
For `CCO[C@H](C(=O)Nc1nnc(N[C@@H]2CCN(c3cccnn3)C2)s1)c1cccc(OC(F)F)c1` (single isomer, unassigned) [Example 17(a)], the IC50 in experiment [1] (setting [3]) was determined as 1.56 nM.
On the same count and under the same terms, in the case of `CCO[C@H](C(=O)Nc1nnc(N[C@@H]2CCN(c3cccnn3)C2)s1)c1cccc(OC(F)(F)F)c1` (single isomer, unassigned) [Example 19(a)] it was 2.61 nM; in that of `CO[C@H](C(=O)Nc1nnc(N[C@@H]2CCN(c3cccnn3)C2)s1)c1ccc(F)c(OC(F)(F)F)c1` (single isomer, unassigned) [Example 20(a)], 6.57 nM.
In the case of `CCOC(C(=O)Nc1nnc(N[C@@H]2CCN(c3cccnn3)C2)s1)c1cccc(N2CC(F)C2)c1` (single isomer, unassigned) [Example 32], the concentration for half-maximal inhibition (IC50) is 98.7 nM in experiment [1] (setting [3]) and 188 nM in experiment [2].
In the case of `COCC(C(=O)Nc1nnc(N[C@@H]2CCN(c3ccc(C)nn3)C2)s1)c1ccccc1` (single isomer, unassigned) [Example 45(a)], the IC50 in experiment [2] was 1600 nM.
With `CCO[C@H](C(=O)Nc1nnc(N[C@@H]2CCN(c3cccnn3)C2)s1)c1cccc(N2CC(OC)C2)c1` [Example 22(a), (2S)-2-ethoxy-2-[3-(3-methoxyazetidin-1-yl)phenyl]-N-[5-[[(3R)-1-pyridazin-3-ylpyrrolidin-3-yl]amino]-1,3,4-thiadiazol-2-yl]acetamide], the IC50 in experiment [1] (setting [4]) was 5.35 nM.
Take `CCOC(C(=O)Nc1nnc(N[C@@H]2CCN(c3cccnn3)C2)s1)c1cccc(N2CC(OC)C2)c1` (stereo partly drawn) [Example 33, 2-ethoxy-2-[3-(3-methoxyazetidin-1-yl)phenyl]-N-[5-[[(3R)-1-pyridazin-3-ylpyrrolidin-3-yl]amino]-1,3,4-thiadiazol-2-yl]acetamide]: the half-maximal inhibitory concentration (IC50) in experiment [1] (setting [3]) amounted to 5.35 nM.
For the compound `COC(C(=O)Nc1nnc(N[C@@H]2CCN(c3ccc(F)nn3)C2)s1)c1cccc(N2CC(F)(F)C2)c1` (stereo partly drawn) [Example 41, 2-[3-(3,3-difluoroazetidin-1-yl)phenyl]-N-[5-[[(3R)-1-(6-fluoropyridazin-3-yl)pyrrolidin-3-yl]amino]-1,3,4-thiadiazol-2-yl]-2-methoxy-acetamide], in experiment [1] (setting [3]), the IC50 was 1.46 nM.
